{"source": "patent US8367328B2", "about": "“Method for synthesizing DNA” (Takara Bio Inc., priority 1998, dated 2013)", "tested_on": "KOD dash DNA Polymerase", "assay": "PCR with KOD dash DNA Polymerase in the presence of acidic substances", "format": "biochemical", "conditions": "12 kb fragment; 10 pg λDNA, primers λ1/λ9, 25 cycles 98°C 5 s–68°C 3 min; amount added 0.5 μg", "procedure": "(2) The effects of the acidic substances were studied for KOD dash DNA Polymerase (manufactured by TOYOBO CO., LTD.), comprising a combination of DNA polymerase having 3′→5′ exonuclease activity, and DNA polymerase having no such activity. A reaction mixture comprising λDNA as a template, primers λ1 and λ9 as a primer pair was prepared, and PCR was carried out. In the following example, PCR was carried out in Fast mode by using TaKaRa PCR Thermal Cycler Personal (manufactured by Takara Shuzo Co., Ltd.). The composition of the reaction mixture is as follows. Composition of Reaction Mixture: exclusive buffer attached for KOD dash DNA Polymerase, 0.2 mM each of dATP, dCTP, dGTP and dTTP, 10 pg of λDNA, 2.5 U of KOD dash DNA Polymerase, and 10 pmol each of primers λ1 and λ9 (a final volume being 50 μl). Further, 1 ng of the sulfated-fucose-containing polysaccharide-F or 0.5 μg of sodium alginate was respectively added to the above reaction mixture.\nThe reaction was carried out in 25 cycles, wherein one cycle of reaction comprises a process consisting of 98° C., 5 seconds—68° C., 3 minutes. After the termination of the reaction, 5 μl of the resulting reaction mixture was subjected to electrophoresis on 1% agarose gel containing ethidium bromide in an amount of 0.00005%, whereby an amplified fragment was confirmed.", "data": [{"substance": "sodium alginate", "values": [{"measurement": "Amplification Results", "value": "++ (Intensive amplification being observed)"}]}]}
